In patent US20240327415A1, “Multicomponent Complexes, Including Salts, Crystalline Forms, and Hydrates and Solvates of ENT1 Inhibitors” (iTeos Belgium SA, priority 2023, published 2024):

Key:
[1] = salt screen, XRPD of damp, dried and 40° C./75% RH stored samples (Salt Preparation Methods 1 and 2); format: physicochemical; set-up: key to XRPD Analysis Damp/Dry: A = amorphous; Evap. = isolated via evaporation; conditions: 1 equiv.; for XRPD Analysis Damp / XRPD Analysis Dry: Ethyl acetate; for XRPD Analysis Damp/Dry: (evap.)
Method: (§1) Salt Preparation Method 1: Approximately 25 mg of Compound 1 (free base) was weighed out into 1.5 mL screw-cap vials and a stirrer bar was added. For solid counterions, the appropriate amount of acid (1.0 or 2.0 equiv.) was weighed into separate 1.5 mL screw-cap vials. 100 μL of the appropriate solvent system was added to both the Compound 1 and the solid counterions. Stock solutions of liquid counterions were prepared, such that 100 μL contained 1.0 or 2.0 equiv. of acid. See counterion and solvent lists in Table 60 and Table 61 respectively.
(§2) The samples were stirred at 40° C. for 5-10 min and then the acid solutions were added to Compound 1, rinsing out the transfer vial with a further 50 μL of solvent. […] Experiments were temperature cycled between 40° C. and 5° C. (1 h hold; 0.1° C./min ramp/cool) for ca. 24-68 h. Anti-solvent addition (ASA) was carried out to slurries at 5° C. then experiments were heated to 30° C. over 1 h. ASA was carried out at 30° C. or 40° C. where clear solutions or gums were observed.
(§3) Temperature cycling was then continued for ca. 16-69 h, followed by further ASA and temperature cycling if required. Material was isolated at 5° C. and analyzed damp by XRPD. All isolated material was dried under vacuum at ca. 40° C. for ca. 17-91 h then re-analyzed by XRPD. The XRPD plate was stored at 40° C./75% RH for 24-48 h and then samples re-analyzed. Solutions were stored uncapped at ambient temperature to evaporate. Any residual solids were analyzed by XRPD.
(§4) Salt Preparation Method 2: The general procedure adopted in preparing the potential salts is outlined below. A known mass of Compound 1 (free base) and a known volume of the appropriate solvent system were added to 20 mL scintillation vials. The required mol. equiv. of the appropriate counterions were added to the vials as solutions or slurries in the corresponding solvent system.
(§5) The experiments were stirred at 40° C. for ca. 1 h, and then temperature cycled between 40° C. and 5° C. with 0.1° C./min ramp and 1 h hold between each step. Anti-solvent additions and subsequent slurrying at 5° C. were employed in order to facilitate crystallization. […] The damp and dried solids were subsampled and analyzed by XRPD. Where applicable, the dried solids were stored at 40° C./75% RH for 24-48 h in order to improve the crystallinity and/or facilitate solid form conversion to the desired form.

[2] = as above; format: physicochemical; set-up: key: A = amorphous; Evap. = isolated via evaporation; conditions: 1 equiv.
Method: as §1, §2, §3, §4, §5

[3] = Citric acid, Acetonitrile, AS tBME
[4] = Citric acid, Ethanol, AS Heptane
[5] = Citric acid, IPA:H2O (75:25% v/v), AS tBME
[6] = L-Tartaric acid, Acetonitrile, AS tBME
[7] = L-Tartaric acid, Ethanol, AS Heptane
[8] = L-Tartaric acid, IPA:H2O (75:25% v/v), AS tBME
[9] = L-Tartaric acid, MEK, AS Heptane
[10] = L-Tartaric acid, THF, AS Heptane
[11] = Maleic acid, IPA:H2O (75:25% v/v), AS tBME
[12] = Maleic acid, Acetonitrile, AS tBME
[13] = Maleic acid, Ethanol, AS Heptane
[14] = Maleic acid, Ethyl acetate, AS Heptane
[15] = Methanesulfonic acid, Ethanol, AS Heptane
[16] = Methanesulfonic acid, IPA:H2O (75:25% v/v), AS tBME
[17] = Methanesulfonic acid, Acetonitrile, AS tBME
[18] = Methanesulfonic acid, Ethyl acetate, AS Heptane
[19] = Methanesulfonic acid, MEK, AS Heptane
[20] = Methanesulfonic acid, THF, AS Heptane

O=C(O)CC(O)(CC(=O)O)C(=O)O [Citric acid, 1 equiv.]
A: XRPD Analysis 40° C. 75% RH [2, 3] | XRPD Analysis Damp [2, 3] | XRPD Analysis Dry [2, 3] | XRPD Analysis 40° C. 75% RH [2, 4] | XRPD Analysis Damp [2, 4] | XRPD Analysis Dry [2, 4] | XRPD Analysis 40° C. 75% RH ([2]; Citric acid, Ethyl acetate, AS Heptane) | XRPD Analysis 40° C. 75% RH [2, 5] | XRPD Analysis Damp [2, 5] | XRPD Analysis Dry [2, 5] | XRPD Analysis 40° C. 75% RH ([2]; Citric acid, MEK, AS Heptane) | XRPD Analysis Damp ([2]; Citric acid, MEK, AS Heptane) | XRPD Analysis Dry ([2]; Citric acid, MEK, AS Heptane) | XRPD Analysis 40° C. 75% RH ([2]; Citric acid, THF, AS Heptane) | XRPD Analysis Damp ([2]; Citric acid, THF, AS Heptane) | XRPD Analysis Dry ([2]; Citric acid, THF, AS Heptane)
PC, CI: XRPD Analysis Damp ([1]; Citric acid, AS Heptane) | XRPD Analysis Dry ([1]; Citric acid, AS Heptane)

O=C(O)C(O)C(O)C(=O)O [L-Tartaric acid, 1 equiv.]
PC, CI: XRPD Analysis Damp ([1]; L-Tartaric acid, AS Heptane) | XRPD Analysis Dry ([1]; L-Tartaric acid, AS Heptane)
A: XRPD Analysis 40° C. 75% RH [2, 6] | XRPD Analysis Damp [2, 6] | XRPD Analysis Dry [2, 6] | XRPD Analysis 40° C. 75% RH [2, 7] | XRPD Analysis Damp [2, 7] | XRPD Analysis Dry [2, 7] | XRPD Analysis 40° C. 75% RH ([2]; L-Tartaric acid, Ethyl acetate, AS Heptane) | XRPD Analysis 40° C. 75% RH [2, 8] | XRPD Analysis Damp [2, 8] | XRPD Analysis Dry [2, 8] | XRPD Analysis 40° C. 75% RH [2, 9] | XRPD Analysis Damp [2, 9] | XRPD Analysis Dry [2, 9] | XRPD Analysis 40° C. 75% RH [2, 10] | XRPD Analysis Damp [2, 10] | XRPD Analysis Dry [2, 10]

O=C(O)/C=C\C(=O)O [Maleic acid, 1 equiv.]
A (evap.): XRPD Analysis Damp/Dry [1, 11]
A: XRPD Analysis 40° C. 75% RH [2, 12] | XRPD Analysis Damp [2, 12] | XRPD Analysis Dry [2, 12] | XRPD Analysis 40° C. 75% RH [2, 13] | XRPD Analysis Damp [2, 13] | XRPD Analysis Dry [2, 13] | XRPD Analysis 40° C. 75% RH [2, 14] | XRPD Analysis Damp [2, 14] | XRPD Analysis Dry [2, 14] | XRPD Analysis 40° C. 75% RH [2, 11] | XRPD Analysis 40° C. 75% RH ([2]; Maleic acid, MEK, AS Heptane) | XRPD Analysis Damp ([2]; Maleic acid, MEK, AS Heptane) | XRPD Analysis Dry ([2]; Maleic acid, MEK, AS Heptane) | XRPD Analysis 40° C. 75% RH ([2]; Maleic acid, THF, AS Heptane) | XRPD Analysis Damp ([2]; Maleic acid, THF, AS Heptane) | XRPD Analysis Dry ([2]; Maleic acid, THF, AS Heptane)

CS(=O)(=O)O [Methanesulfonic acid, 1 equiv.]
A: XRPD Analysis 40° C. 75% RH [2, 17] | XRPD Analysis Damp [2, 17] | XRPD Analysis Dry [2, 17] | XRPD Analysis 40° C. 75% RH [2, 15] | XRPD Analysis 40° C. 75% RH [2, 18] | XRPD Analysis Damp [2, 18] | XRPD Analysis Dry [2, 18] | XRPD Analysis 40° C. 75% RH [2, 16] | XRPD Analysis 40° C. 75% RH [2, 19] | XRPD Analysis Damp [2, 19] | XRPD Analysis Dry [2, 19] | XRPD Analysis 40° C. 75% RH [2, 20] | XRPD Analysis Damp [2, 20] | XRPD Analysis Dry [2, 20]
A (evap.): XRPD Analysis Damp/Dry [1, 15] | XRPD Analysis Damp/Dry [1, 16]
